Experimental data taken from patent publication US6576671B1, “Aminotetralin derivatives for the therapy of cardiovascular diseases” (Chiese Farmaceutici S.p.A., priority 1999, dated 2003).

Key:
[1] = molecular target: peripheral DA2 dopaminergic receptors (Oryctolagus cuniculus, UniProt G1T1Q0); test: Peripheral DA2 dopaminergic activity in electrically stimulated rabbit rectococcygeus muscle
Description: The activity of CHF 1024 and CHF 1035 on peripheral DA2 dopaminergic receptors has been tested in the electrically stimulated rabbit rectococcygeus muscle.

[2] = system: patients suffering from NYHA class II-III congestive heart failure; test: Add-on therapy study, 28 days, clinical condition and exercise capacity; type: in vivo, human
Method: The effects of CHF 1030 as added therapy have been evaluated in patients suffering from NYHA class II-III congestive heart failure due to mild hypertension, or coronary disease, or chronic cardiomyopathy who were on diuretics or diuretics and an angiotensin-converting enzyme inhibitor.
Recruited patients were randomly assigned to added double-blind treatment with placebo or with three different doses of the study drug (5 mg, 10 mg, 15 mg).
The study therapy was started by patients on day 1 and proceeded until day 28 of the study.
The following parameters have been considered to determine the clinical condition of patients:
The functional response to the treatments has been evaluated by exertional tests, the 6-minute walking test and the 130-meter walking test.
For the evaluation of clinical condition, more than 60 symptoms or signs were evaluated.
For statistical purposes scores from signs and symptoms (as applicable) were summed to form clinical compound scorings (CCSs) of pathophysiological importance in congestive heart failure.

peripheral DA2 dopaminergic receptors, sequence (G1T1Q0 1-443): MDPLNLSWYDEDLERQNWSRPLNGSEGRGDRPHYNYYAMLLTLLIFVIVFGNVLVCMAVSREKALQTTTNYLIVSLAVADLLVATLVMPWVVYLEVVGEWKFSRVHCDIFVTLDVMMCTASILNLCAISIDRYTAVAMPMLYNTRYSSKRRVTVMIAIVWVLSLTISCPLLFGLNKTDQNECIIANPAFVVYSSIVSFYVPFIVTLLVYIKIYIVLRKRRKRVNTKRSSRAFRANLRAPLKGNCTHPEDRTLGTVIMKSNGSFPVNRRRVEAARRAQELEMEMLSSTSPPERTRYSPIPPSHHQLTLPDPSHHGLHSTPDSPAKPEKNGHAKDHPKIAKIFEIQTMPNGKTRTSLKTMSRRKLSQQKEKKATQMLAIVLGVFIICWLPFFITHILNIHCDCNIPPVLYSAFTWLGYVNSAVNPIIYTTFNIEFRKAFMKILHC

CNC1CCc2c(ccc(OC(=O)C(C)C)c2OC(=O)C(C)C)C1 (centres unmarked) [CHF 1035, 5,6-Diisobutyroyloxy-2-methylaminotetralin]
effect in presence of selective DA2-antagonist domperidone [1]: competitively antagonized | more potent than dopamine [1]: approximately 3 times | IC50 ([1]; read-out: IC50, 50% inhibition of the electrically induced contraction): 0.0296 µM | functional and clinical condition of patients, compared to placebo ([2]; 5, 10, 15 mg add-on to diuretics or diuretics and ACE inhibitor, day 1 to 28): improved | duration of pharmacodynamic effects versus serum levels of the drug ([2]; patients with congestive heart failure): last longer than detectable serum levels
